Where two headings read alike, the source gives them in different places.
Legend:
MAPKAPK2 (MK-2) = MAPKAPK2 (MK-2) (Homo sapiens, UniProt P49137); experiment: Determination of MK-2 IC50 (HSP-peptide phosphorylation, anion exchange resin capture assay); format: biochemical
Procedure, shortened: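 MAPKAPK2, preactivated by p38α with 0.25 mM ATP for 1 h at 30° C, used at 15 nM to phosphorylate HSP-peptide with 0.03 mM ATP plus [γ33P]ATP, pH 7.5, 2% DMSO, 30 min at 30° C. Labelled peptide counted after anion-exchange resin capture; IC50 from six ten-fold dilutions, triplicate.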

MK-3 = MK-3 (Homo sapiens, UniProt Q16644); experiment: MK-3 inhibition IC50 (similar method to MK-2, with appropriate modifications); format: biochemical; details: read-out: MK-3 Avg. IC50
MK-3, sequence (Q16644 whole entry, species assumed): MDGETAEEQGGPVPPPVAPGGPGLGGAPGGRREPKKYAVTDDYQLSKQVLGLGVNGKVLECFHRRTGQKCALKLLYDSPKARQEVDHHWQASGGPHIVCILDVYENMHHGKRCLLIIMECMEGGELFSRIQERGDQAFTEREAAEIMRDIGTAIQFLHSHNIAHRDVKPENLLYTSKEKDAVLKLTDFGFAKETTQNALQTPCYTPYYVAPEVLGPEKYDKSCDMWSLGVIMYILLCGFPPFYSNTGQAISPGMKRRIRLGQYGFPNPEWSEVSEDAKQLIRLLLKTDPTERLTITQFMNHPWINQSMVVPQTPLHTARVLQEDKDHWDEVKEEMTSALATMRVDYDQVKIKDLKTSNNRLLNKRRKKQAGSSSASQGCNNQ

[1] = Table 1, phenoxypyrazole MK-2 inhibitors, read-out: MK-2 Avg, IC50
[2] = Table 1, phenoxypyrazole MK-2 inhibitors
[3] = Table 2, pyrazolylpyrazole MK-2 inhibitors, read-out: MK-2 Avg. IC50
[4] = Table 2, pyrazolylpyrazole MK-2 inhibitors

MAPKAPK2 (MK-2), sequence (P49137 whole entry, species assumed): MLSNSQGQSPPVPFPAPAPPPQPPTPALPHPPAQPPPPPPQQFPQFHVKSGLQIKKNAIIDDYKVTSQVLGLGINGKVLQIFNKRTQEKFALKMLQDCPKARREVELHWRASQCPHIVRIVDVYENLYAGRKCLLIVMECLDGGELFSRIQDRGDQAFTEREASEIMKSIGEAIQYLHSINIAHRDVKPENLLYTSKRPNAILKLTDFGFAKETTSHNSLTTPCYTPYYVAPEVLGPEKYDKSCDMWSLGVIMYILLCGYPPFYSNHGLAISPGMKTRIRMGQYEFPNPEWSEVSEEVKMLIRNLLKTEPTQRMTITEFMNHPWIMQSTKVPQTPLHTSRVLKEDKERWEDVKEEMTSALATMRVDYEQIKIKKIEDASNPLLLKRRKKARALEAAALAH

Row | IC50 (MAPKAPK2 (MK-2); [1]) [µM] | IC50 (MK-3; [2]) [µM] | IC50 (MAPKAPK2 (MK-2); read-out: MK-2 Avg. IC50) [µM] | IC50 (MK-3) [µM] | IC50 (MAPKAPK2 (MK-2); [3]) [µM] | IC50 (MK-3; [4]) [µM] | Structure (SMILES)
1 | 150 | > 200 |  |  |  |  | COCCOCOc1ccc2c(c1)CCc1c-2n[nH]c1C(=O)O [Example 61]
2 | 154 | > 200 |  |  |  |  | COC(=O)c1[nH]nc2c1CCc1cc(O)c(O)cc1-2 [Example 64]
3 |  |  | 0.62 | 22.8 |  |  | NCCCn1nc2c(c1C(=O)O)CCc1cnccc1-2 [Example 64]
4 |  |  |  |  | ≥ 200 | ≥ 200 | CC(C)(C)OC(=O)NCCCn1nc2c(c1C(N)=O)CCc1[nH]ncc1-2 [Example 66]
5 |  |  |  |  | ≥ 200 | ≥ 200 | N#CCCn1nc(C(N)=O)c2c1-c1cn[nH]c1CC2 [Example 67]
6 |  |  |  |  | ≥ 200 | ≥ 200 | NC(=O)c1[nH]nc2c1CCc1c-2cnn1COCc1ccccc1 [Example 68]
7 |  |  | 0.706 | 43.1 |  |  | NCCn1nc2c(c1C(=O)O)CCc1cnccc1-2 [Example 68]
8 |  |  |  |  | ≥ 200 | ≥ 200 | CCOC(=O)c1[nH]nc2c1CCc1c-2cnn1CCO [Example 69]
9 | 176 | > 200 |  |  |  |  | CNC(=O)c1[nH]nc2c1CCc1cc(O)ccc1-2 [Example 69]
10 | 176 | > 200 |  |  |  |  | CCOC(=O)c1[nH]nc2c1CCc1cc(O)ccc1-2 [Example 70]
11 |  |  |  |  | ≥ 200 | ≥ 200 | NC(=O)c1[nH]nc2c1CCc1c-2cnn1CCO [Example 70]
12 |  |  |  |  | ≥ 200 | ≥ 200 | CCOC(=O)c1c2c(nn1CC(F)(F)F)-c1cn[nH]c1CC2 [Example 72]
13 | 184 | > 200 |  |  |  |  | O=C(NCCO)c1[nH]nc2c1CCc1cc(O)ccc1-2 [Example 73]
14 |  |  |  |  | ≥ 200 | 124 | CCOC(=O)c1nn(CC(F)(F)F)c2c1CCc1[nH]ncc1-2 [Example 80]
15 |  |  |  |  | ≥ 200 | ≥ 200 | O=C(O)CCn1nc(C(=O)O)c2c1-c1cn[nH]c1CC2 [Example 100]

Continued, molecule first:

Row | Structure (SMILES) | IC50 (MAPKAPK2 (MK-2); [1]) [µM] | IC50 (MK-3; [2]) [µM] | IC50 (MAPKAPK2 (MK-2); read-out: MK-2 Avg. IC50) [µM] | IC50 (MK-3) [µM] | IC50 (MAPKAPK2 (MK-2); [3]) [µM] | IC50 (MK-3; [4]) [µM]
16 | CC(=O)c1ccc(CCCNCCCn2nc3c(c2C(=O)O)CCc2cnccc2-3)cc1 [Example 63] |  |  | 0.603 | 12.6 |  | 
17 | CS(=O)(=O)c1ccc(CCCNCCCn2nc3c(c2C(=O)O)CCc2cnccc2-3)cc1 [Example 65] |  |  | 0.622 | 26.1 |  | 
18 | Cn1nc(C(N)=O)c2c1-c1ccc(O)cc1CC2 [Example 65] | 158 | > 200 |  |  |  | 
19 | COc1ccccc1-c1cc2c(cn1)CCc1c-2nn(CCCN)c1C(=O)O [Example 66] |  |  | 0.632 | 6.87 |  | 
20 | COc1cc2c(cc1-c1ccncc1)-c1nn(CCCNC(=O)OC(C)(C)C)c(C(=O)O)c1CC2 [Example 67] | 165 | > 200 |  |  |  | 
21 | NCc1cccc(-c2ccc(CCNCCCn3nc4c(c3C(=O)O)CCc3cnccc3-4)cc2)c1 [Example 67] |  |  | 0.663 | 10 |  | 
22 | CC1Cc2cc(O)ccc2-c2n[nH]c(C(N)=O)c21 (stereo not shown) [Example 68] | 173 | 196 |  |  |  | 
23 | O=C(O)c1c2c(nn1CCCNCCc1ccc([N+](=O)[O-])cc1)-c1ccncc1CC2 [Example 69] |  |  | 0.765 | 11.9 |  | 
24 | O=C(O)c1c2c(nn1CCCNCCc1ccc(-c3ccccc3C(F)(F)F)cc1)-c1ccncc1CC2 [Example 70] |  |  | 0.801 | 44.8 |  | 
25 | Cn1nc2c(c1C(N)=O)CCc1cc(O)ccc1-2 [Example 71] | 179 | > 200 |  |  |  | 
26 | O=C(O)c1nn(-c2ccccc2)c2c1CCc1[nH]ncc1-2 [Example 71] |  |  |  |  | ≥ 200 | ≥ 200
27 | O=C1NC(CO)Cn2nc3c(c21)CCc1cnccc1-3 (stereo not shown) [Example 71] |  |  | 0.825 | 35 |  | 
28 | CC(C)(C)OC(=O)NCCCn1nc2c(c1C(=O)O)CCc1cc(O)ccc1-2 [Example 72] | 181 | > 200 |  |  |  | 
29 | Cc1ccc(CCNCCCn2nc3c(c2C(=O)O)CCc2cnccc2-3)cc1 [Example 72] |  |  | 0.89 | 17.2 |  | 
30 | CCOC(=O)c1nn(CC(F)(F)F)c2c1CCc1c-2cnn1C(c1ccccc1)(c1ccccc1)c1ccccc1 [Example 73] |  |  |  |  | ≥ 200 | ≥ 200
31 | O=C1NC(CNCCc2cccs2)Cn2nc3c(c21)CCc1cnccc1-3 (stereo not shown) [Example 73] |  |  | 0.924 | 27.8 |  | 
32 | C=CCn1nc2c(c1C(=O)OCC)CCc1c-2cnn1C(c1ccccc1)(c1ccccc1)c1ccccc1 [Example 74] |  |  |  |  | ≥ 200 | ≥ 200
33 | CCOc1ccc(CCNCCCn2nc3c(c2C(=O)O)CCc2cnccc2-3)cc1 [Example 74] |  |  | 0.931 | 34.8 |  | 
34 | C=CCn1nc2c(c1C(N)=O)CCc1cc(OCOCCOC)ccc1-2 [Example 80] | > 200 | > 200 |  |  |  | 
35 | O=C(O)c1c2c(nn1CCCNCCC(c1ccccc1)c1ccccc1)-c1ccncc1CC2 [Example 80] |  |  | 1.18 | 30.3 |  | 
